Reference: paper PMC9782819, “Ramosin: The First Antibacterial Peptide Identified on Bolitoglossa ramosi Colombian Salamander” (Pharmaceutics, 2022)
Where no end group is shown, it is not given here.

Experiments:
[1] = tested on: Staphylococcus aureus ATCC 29,213; assay: Broth microdilution endpoint assay / MIC; type: cell-based; settings: 19 h treatment, absorbance 600 nm, p > 0.005
Method: (§1) To determine the minimum inhibitory concentrations (MICs) of the candidate peptides, the 96-well plate microdilution assay, described by the Clinical and Laboratory Standards Institute (CLSI) and the European Committee on Antimicrobial Susceptibility Testing (EUCAST), was performed. For testing the antimicrobial activity of the candidate peptides, Gram-positive and Gram-negative bacterial strains were used. […] For this assay, 3 to 5 colonies were taken from the agar and grown to exponential phase in tryptic soy broth (TSB) liquid medium defined as a 0.5 McFarland value measured with a densichek plus (Biomérieux). […] The plates were incubated for 18 h at 37 °C, and subsequently the absorbance was read in a MultiSkan GO (Thermofisher, Waltham, MA, USA) at 600 nm. […] To determine if the effect of the peptides was bactericidal or bacteriostatic, once the absorbance reading was completed, 10 μL were taken from each well where bacterial growth inhibition was observed and they were sown in TSA agars and incubated at 37 °C for 24 h. […]
(§2) All bacterial strains used were ATCC reference strains. The antibacterial activity of Ramosin was evaluated using the Wiegand et al. protocol. […]
(§3) In addition to absorbance measurement, a bacterial growth test was performed. […]

[2] = tested on: Bacillus cereus ATCC 6464; assay: Growth inhibition kinetics (bactericidal or bacteriostatic); type: cell-based; settings: 19 h, peptide 70 μM
Method: (§4) To determine the minimum inhibitory concentrations (MICs) of the candidate peptides, the 96-well plate microdilution assay, described by the Clinical and Laboratory Standards Institute (CLSI) and the European Committee on Antimicrobial Susceptibility Testing (EUCAST), was performed. For testing the antimicrobial activity of the candidate peptides, Gram-positive and Gram-negative bacterial strains were used. The strains used were Staphylococcus aureus ATCC 29,213 (S. aureus), Enterococcus faecalis ATCC 29,212 (E. faecalis), Bacillus cereus ATCC 6464 (B. cereus), and Micrococcus luteus ATCC 9341 (M. luteus) as Gram-positive, and Escherichia coli ATCC 25,922 (E. coli), Pseudomonas aeruginosa ATCC 27,853 (P. aeruginosa), and Salmonella typhimurium ATCC 14,028 (S. typhimurium) as Gram-negative. The bacteria were cultivated in tryptic soy agar (TSA) until the time of carrying out the antimicrobial activity assay. For this assay, 3 to 5 colonies were taken from the agar and grown to exponential phase in tryptic soy broth (TSB) liquid medium defined as a 0.5 McFarland value measured with a densichek plus (Biomérieux). Bacteria were diluted to a final concentration of 5 × 10^5 CFU/mL. […] The plates were incubated for 18 h at 37 °C, and subsequently the absorbance was read in a MultiSkan GO (Thermofisher, Waltham, MA, USA) at 600 nm. […] To determine if the effect of the peptides was bactericidal or bacteriostatic, once the absorbance reading was completed, 10 μL were taken from each well where bacterial growth inhibition was observed and they were sown in TSA agars and incubated at 37 °C for 24 h. […]
(§5) All bacterial strains used were ATCC reference strains. The antibacterial activity of Ramosin was evaluated using the Wiegand et al. protocol. […] Two types of tests were carried out: the endpoint, in which the absorbance of the plates was read after 19 h of treatment, and kinetics, in which plate readings were made every hour to determine whether the effect of the peptides was bactericidal or bacteriostatic.
as §3

[3] = tested on: Escherichia coli ATCC 25,922; assay: as above; type: cell-based; settings: 19 h, peptide 70 μM
Method: as §4, §5, §3

[4] = tested on: Pseudomonas aeruginosa ATCC 27,853; assay: as above; type: cell-based; settings: 19 h, peptide 70 μM
Method: as §4, §5, §3

[5] = tested on: Staphylococcus aureus ATCC 29,213; assay: as above; type: cell-based; settings: 19 h, peptide 70 μM
Method: as §1, §2, §3

[6] = tested on: Escherichia coli ATCC 25,922; type: cell-based; settings: ATCC 25, 18 h
Method: as §1, §2, §3

[7] = tested on: human red blood cells
Method: The hemolytic activity of the peptide was determined as previously reported [45]. In brief, its hemolytic activity of the peptide was evaluated by determining the amount of the released hemoglobin from a 4% v/v suspension of fresh human red blood cells (RBCs). In 96-well plates, 65 μL of the RBCs suspension and 65 μL of each peptide dilution were mixed. […] Plates were incubated at 37 °C for two hours, then centrifuged at 2500× g for 5 min. A total of 80 μL of supernatant was recovered and transferred to another 96-well plate, and absorbance at 540 nm was measured in a MultiSkan GO (Thermofisher, Waltham, MA, USA). The percentage of hemolysis was calculated according to the following formula [45]: (1) %Hemolysis=OD450 in the peptide suspension−OD450 negative control in PBS/OD450 of positive control−OD450 negative control in PBS×100

Substance: Buforin II
- effect on viability of S. aureus, endpoint assay (peptide control) [1]: did not have a statistically significant effect
- effect on B. cereus at 70 μM [2]: failed to inhibit the growth
- effect on E. coli at 70 μM [3]: bactericidal effect
- effect on P. aeruginosa at 70 μM [4]: bactericidal effect
- effect on S. aureus at 70 μM [5]: failed to inhibit the growth

Substance: GWFSLVRKVVGGVGSL-NH2 [Ramosin]
- MIC for E. coli [6]: 17.5 µM
- non-hemolytic concentration relative to MIC [7]: up to four times its MIC
